Data from patent US20230390353A1, “PHARMACEUTICAL COMPOSITION FOR TREATING MYOCARDIAL ISCHEMIA AND PREPARATION METHOD THEREFOR” (TASLY PHARMACEUTICAL GROUP CO., LTD., priority 2021, published 2023).

Experiments:
[1] = test system: myocardial Ca^2+—Mg^2+-ATP; experiment: Energy metabolism related enzyme detection, myocardial Ca2+-Mg2+-ATP activity; type: in vivo, SD rats; details: myocardium of myocardial ischemia rats after treatment
From the text: (§1) 110 experimental animals were purchased, of which 10 animals were set as a sham-operation group, and 100 animals were used for modeling left anterior descending coronary artery ligation. After modeling, surviving rats were randomly divided into a vehicle control group, a traditional Chinese medicine group, a ranolazine group 1, a ranolazine group 2, a ranolazine group 3, a pharmaceutical composition group 1 of the present invention and a pharmaceutical composition group 2 of the present invention according to body weight. After therapeutic administration for 28 days, the rats from the vehicle control group were given the same amount of menstruum by gavage. On the 28th day of intragastric administration, 6 rats in each group were randomly selected for echocardiography. After intragastric administration of 60 min on Day 30, a weight-bearing swimming test was performed, and animal samples were taken after the end of weight-bearing swimming.

[2] = test system: rats with myocardial ischemia; experiment: Weight-bearing swimming duration test in rats with myocardial ischemia; type: in vivo, SD rats; details: gavage, Day 30, 60 min after dose, 5% load
From the text: as §1, with “swimming. After intragastric administration of 60 min on Day 30, the experimental animals were subjected to the weight-bearing swimming test. After weighing, the rats, fixed a 5% weight of its body weight on the tail were placed in a transparent container filled with water with an inner diameter of 19 cm and a water depth of 30 cm. The water temperature was 25±2° C. The rats swimming to exhaustion were judged by the standard of losing balance and the head submerged for more than 10 seconds. The time of swimming was recorded as the time of weight-bearing swimming.” for “swimming.”

myocardial Na^+—K^+-ATP = experiment: Energy metabolism related enzyme detection, myocardial Na+-K+-ATP activity; type: in vivo, SD rats; details: myocardium of myocardial ischemia rats after treatment
From the text: as §1

[3] = test system: rats with myocardial ischemia; experiment: Echocardiography (cardiac function) in rats with myocardial ischemia; type: in vivo, SD rats; details: Day 28, 60 min after gavage
From the text: as §1, with “After” for “110 experimental animals were purchased, of which 10 animals were set as a sham-operation group, and 100 animals were used for modeling left anterior descending coronary artery ligation. After”, “swimming. After intragastric administration of 60 min on Day 28, 6 rats in each group were randomly selected, and the cardiac function was detected by a portable b-ultrasound instrument. The changes of cardiac ejection fraction (EF) and E/A were detected.” for “swimming.”

[4] = test system: rats with myocardial ischemia; experiment: Myocardial histopathology detection in rats with myocardial ischemia; type: in vivo, SD rats; details: myocardial pathology
From the text: as §1, with “swimming. […] The administration of the pharmaceutical composition of the present invention could reduce myocardial fibrosis to varying degrees, causing a certain protective effect on the ischemic myocardium, and the effect of the pharmaceutical composition group 2 of the present invention was better.” for “swimming.”

normal mice = experiment: Weight-bearing swimming time in normal mice; type: in vivo; details: normal BALB/c mice, 7 days pre-administration, 30 min after last administration, 5% body weight load; ranolazine 205 mg/kg, traditional Chinese medicine 68 mg/kg, composition 34 + ranolazine 102 mg/kg
Procedure: According to the reference, 40 male mice are randomly divided into 4 groups (n=10): a normal group, a ranolazine group, a traditional Chinese medicine group and a pharmaceutical composition group of the present invention are administered in advance for 7 days, and the mice in the normal group are administered intragastrically with equivalent distilled water. Swimming tests are performed 30 min after the last administration. Mice are fixed a 5% weight of its body weight on the tail, and then placed in a large container filled with water of about 20 cm. Water should not be overfilled, so as to prevent mice from jumping out. The mice are forced to swim to exhaustion until they swim to death, and the time is recorded as the weight-bearing swimming time of the mice. See Table 5 for grouping and dose setting.

Compound: COc1ccccc1OCC(O)CN1CCN(CC(=O)Nc2c(C)cccc2C)CC1 (racemic) [Ranolazine, (±)-N-(2,6-dimethylphenyl)-4-[2-hydroxy-3-(2-methoxyphenoxy)propyl]-1-piperazine acetamide]
- Ca^2+—Mg^2+-ATP ([1]; ranolazine group 1, 100 mg/kg): 37.99 ± 8.20 µmol/h/g
- Ca^2+—Mg^2+-ATP ([1]; ranolazine group 2, 50 mg/kg): 50.92 ± 6.18 µmol/h/g
- Ca^2+—Mg^2+-ATP ([1]; ranolazine group 3, 25 mg/kg): 29.96 ± 7.66 µmol/h/g
- Weight-bearing swimming duration ([2]; ranolazine group 1, 100 mg/kg): 1927 ± 1450 s
- Weight-bearing swimming duration ([2]; ranolazine group 2, 50 mg/kg): 1268 ± 513 s
- Weight-bearing swimming duration ([2]; ranolazine group 3, 25 mg/kg): 1108 ± 358 s
- Na^+—K^+-ATP (myocardial Na^+—K^+-ATP; ranolazine group 1, 100 mg/kg): 46.04 ± 8.57 µmol/h/g
- Na^+—K^+-ATP (myocardial Na^+—K^+-ATP; ranolazine group 2, 50 mg/kg): 47.10 ± 6.57 µmol/h/g
- Na^+—K^+-ATP (myocardial Na^+—K^+-ATP; ranolazine group 3, 25 mg/kg): 34.98 ± 9.26 µmol/h/g
- E/A ([3]; ranolazine group 1, 100 mg/kg): 1.10 ± 0.09
- Ejection Fraction (EF %) ([3]; ranolazine group 1, 100 mg/kg): 55.32 ± 2.76 %
- E/A ([3]; ranolazine group 2, 50 mg/kg): 1.06 ± 0.13
- Ejection Fraction (EF %) ([3]; ranolazine group 2, 50 mg/kg): 50.52 ± 2.15 %
- E/A ([3]; ranolazine group 3, 25 mg/kg): 0.92 ± 0.08
- Ejection Fraction (EF %) ([3]; ranolazine group 3, 25 mg/kg): 45.03 ± 1.57 %
- Basically normal (number of cases) ([4]; ranolazine group 1, 100 mg/kg): 4 number of cases
- Mild (cardiac muscle fiber partially replaced by collagen fiber) ([4]; ranolazine group 1, 100 mg/kg): 1 number of cases
- Severe (decreased myocardial thickness, and occurrence of transmural myocardial infarction) ([4]; ranolazine group 1, 100 mg/kg): 1 number of cases
- Basically normal (number of cases) ([4]; ranolazine group 2, 50 mg/kg): 3 number of cases
- Mild (cardiac muscle fiber partially replaced by collagen fiber) ([4]; ranolazine group 2, 50 mg/kg): 1 number of cases
- Severe (decreased myocardial thickness, and occurrence of transmural myocardial infarction) ([4]; ranolazine group 2, 50 mg/kg): 2 number of cases
- Basically normal (number of cases) ([4]; ranolazine group 3, 25 mg/kg): 2 number of cases
- Mild (cardiac muscle fiber partially replaced by collagen fiber) ([4]; ranolazine group 3, 25 mg/kg): 2 number of cases
- Severe (decreased myocardial thickness, and occurrence of transmural myocardial infarction) ([4]; ranolazine group 3, 25 mg/kg): 2 number of cases
- Swimming time (normal mice): 3746 ± 1837 s
